Patent US10307383B2, “Cosmetic composition for preventing or ameliorating hypersensitive skin comprising cedrol or derivatives thereof, or pharmaceutically acceptable salts thereof” (University of Seoul Industry Cooperation Foundation, priority 2017, dated 2019)

Experiments:
Format in all cases: in vivo, Balb/c mouse
[1] = tested on: psoriasis induced mice (imiquimod); assay: Skin pain reduction effect in the psoriasis induced mice (back pinch, mice counted); settings: for number of mice showing skin pain: IMQ applied
Experimental: (§1) To investigate the delayed effect of cedrol, cedryl acetate, and alpha-cedrene on the development of psoriasis, total 5 groups of mice were prepared (8 mice/group). First, the hair of the entire back of the 8-week-old male Balb/c mouse whose immune system was weakened was removed by using a hair clipper (Kimlaube Hair pen 325,327, Rikei, Korea). In the middle of the shaved back of the mouse, 2 mg of imiquimod (3M Health Care Limited, England) was applied in the area of 2 cm×1.5 cm and also 1,125 mg of imiquimod was applied on the right ear of the mouse every day once a day to induce psoriasis.
(§2) The mice prepared above were divided into the distilled water treated group (IMQ), the cedrol treated group (C), the cedryl acetate treated group (CA), and the alpha-cedrene treated group (CE). At this time, the mice were orally treated with distilled water at the concentration of 200 μl/mouse and cedrol or its derivatives at the concentration of 200 μl/mouse (100 mg/kg). The day when distilled water or the compound administration started was recorded as day 0 and the administration was performed once a day for a week, during which photo-recording was performed every day (FIGS. 2A˜2D). In the meantime, instead of applying imiquimod, 40 mg of vaseline was applied on the back of the control group (CONT) and 22.5 mg of vaseline was applied on the right ear of the control group. And the control group was orally administered with distilled water (200 μl/mouse).
When the back of the psoriasis induced mice orally administered with cedrol, cedryl acetate, and alpha-cedrene of Example <2-1> was pinched, those mice who sound painfully with strong rejection were counted. Skin pain is a symptom of psoriasis, and when IMQ is applied, skin pain becomes stronger as time goes by.

[2] = tested on: psoriasis induced mice (imiquimod); assay: Cumulative score of PASI for ear thickness, keratosis and skin flair (development phase); settings: 100 mg/kg oral, 7 days, IMQ applied
Experimental: as §1
as §2, with “And the control group was orally administered with distilled water (200 μl/mouse).” left out

[3] = tested on: psoriasis induced mice (imiquimod); assay: Skin flair reduction effect in the psoriasis induced mice (PASI); settings: for skin flair mean point (PASI): day 7, 100 mg/kg oral once a day, IMQ applied, IMQ alone 4.00
Experimental: as §1, §2
Then, the psoriasis area severity index (PASI) was calculated to confirm the reduction effect of the compounds on skin flair. Skin flair is a symptom of psoriasis. The application of IMQ can induce skin flair.

[4] = Weight changes in the psoriasis induced mice (oral administration during imiquimod application); settings: 100 mg/kg oral once a day during application of IMQ; increase
Experimental: as §1
The mice prepared above were divided into the distilled water treated group (IMQ), the cedrol treated group (C), the cedryl acetate treated group (CA), and the alpha-cedrene treated group (CE). […] The day when distilled water or the compound administration started was recorded as day 0 and the administration was performed once a day for a week, during which photo-recording was performed every day (FIGS. 2A˜2D). […]
To compare the weight changes in the psoriasis induced mice according to the oral administration of cedrol, cedryl acetate, and alpha-cedrene of Example <2-1>, the weight of each mouse was measured at the same time every day for a week.

[5] = tested on: psoriasis induced mice (imiquimod); assay: Cumulative score of PASI for ear thickness, keratosis and skin flair (recovery phase); settings: 100 mg/kg oral after termination of imiquimod
Experimental: Imiquimod was applied to the psoriasis induced mice which had developed psoriasis for a week in Example <2-1>. The application was stopped 8 days after the application began. The groups CON and IMQ were treated with distilled water, the group C was treated with cedrol, the group CA was treated with cedryl acetate, the group CE was treated with alpha-cedrene alone at the concentration of 100 mg/kg in 200 μl, every day via oral-administration. Day 8 was the day the imiquimod application was stopped, since then the compounds were administered for 1 week once a day, during which photo-recording was performed (FIGS. 13A˜13D).
The psoriasis area severity index obtained in Examples <3-2> and <3-4> was accumulated to compare the psoriasis area severity index for ear thickness, keratosis and skin flair of the mouse groups respectively treated with cedrol, cedryl acetate, and alpha-cedrene via oral-administration.

weight change for 7 days [4] [g] | SMILES | number of mice showing skin pain ([1]; day 6, 100 mg/kg oral, 8 mice/group) | number of mice showing skin pain ([1]; day 7, 100 mg/kg oral, 8 mice/group, IMQ alone 5) | cumulative PASI (ear thickness, keratosis, skin flair) reduction effect, in words [2] | skin flair mean point (PASI) [3] [point] | number of mice showing skin pain ([1]; day 4, 100 mg/kg oral, 8 mice/group) | number of mice showing skin pain ([1]; day 5, 100 mg/kg oral, 8 mice/group) | cumulative PASI (ear thickness, keratosis, skin flair) recovery effect, in words [5] | skin pain reduction effect, comparison in words ([1]; 100 mg/kg oral, 7 days) | number of mice showing skin pain ([1]; during the 7 day observation period, 100 mg/kg oral) | skin flair reduction effect, comparison in words ([3]; 100 mg/kg oral, 7 days)
 | CC(=O)O[C@]1(C)CC[C@@]23C[C@@H]1C(C)(C)[C@@H]2CC[C@H]3C [cedryl acetate, Cedryl acetate] | one | no mice | strongest reduction effect at a similar level | 3.16 |  |  |  |  |  | 
0.025 | C[C@@H]1CC[C@H]2C(C)(C)[C@H]3C[C@@]12CC[C@@]3(C)O [cedrol, Cedrol] |  |  |  | 3.33 | one | no mice | strongest recovery effect |  |  | 
 | CC1=CC[C@@]23C[C@@H]1C(C)(C)[C@@H]2CC[C@H]3C [alpha-cedrene, Alpha-cedrene] |  |  | strongest reduction effect at a similar level | 3.33 |  |  |  | strongest reduction effect | no mice | strongest reduction effect
